# Data taken from PMC5580309, “Molecular-scale features that govern the effects of O-glycosylation on a carbohydrate-binding module” (Chemical Science, 2015).
# Bridge positions count the residues as written; N and C are the ends. Peptide text beside a SMILES is read from it. * marks the point of attachment. αMan = OC[C@H]1O[C@H](*)[C@@H](O)[C@@H](O)[C@@H]1O
# Target: T1, thermolysin (Bacillus thermoproteolyticus, UniProt P00800)
# T1 sequence (P00800 233-548): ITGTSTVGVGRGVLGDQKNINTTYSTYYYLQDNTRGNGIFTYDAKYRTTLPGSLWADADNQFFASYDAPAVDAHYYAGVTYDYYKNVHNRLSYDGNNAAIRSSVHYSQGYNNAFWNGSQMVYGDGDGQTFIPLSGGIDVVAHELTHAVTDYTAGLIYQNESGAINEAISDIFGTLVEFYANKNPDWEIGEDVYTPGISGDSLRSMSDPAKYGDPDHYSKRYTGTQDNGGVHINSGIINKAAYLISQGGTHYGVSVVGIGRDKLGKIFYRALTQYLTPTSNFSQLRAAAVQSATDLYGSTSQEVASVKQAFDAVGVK
# Assay: Proteolytic stability: half-life to thermolysin degradation
# Format: in vitro ADME
# Conditions: for Change in Half-Life to Thermolysin Degradation: glyco-variant minus its corresponding unglycosylated CBM (e.g. 2-1), *** not used in the correlation plot; for half-life: thermolysin (isolated protease), thermolysin degradation, mean of three trials ± SD, procedures as described previously (ESI ref 18)
# Description: All error bars reported are standard deviations of data achieved from three separate trials.
# cellulose that were determined in accordance with our procedures as described previously 18.
# The results are presented as mean of three trials ± SD. *Denotes an averaged value of four trials
smiles,measurement,value
"CC[C@H](C)[C@@H]1NC(=O)CNC(=O)CNC(=O)[C@@H](NC(=O)[C@H](CCC(N)=O)NC(=O)CNC(=O)[C@H](Cc2ccc(O)cc2)NC(=O)[C@H](C)NC(=O)[C@H](CO[C@H]2O[C@H](CO)[C@@H](O)[C@H](O)[C@@H]2O)NC(=O)[C@H](CCC(N)=O)NC(=O)[C@@H](N)[C@@H](C)O)CSSC[C@@H]2NC(=O)[C@H]([C@@H](C)O)NC(=O)[C@H]([C@@H](C)O)NC(=O)CNC(=O)[C@H](CO)NC(=O)[C@H](C)NC(=O)[C@H](CSSC[C@@H](C(=O)N[C@@H](CC(C)C)C(=O)O)NC(=O)[C@H](CCC(N)=O)NC(=O)[C@H](CO)NC(=O)[C@H](Cc3ccc(O)cc3)NC(=O)[C@H](Cc3ccc(O)cc3)NC(=O)[C@@H]3CCCN3C(=O)[C@H](CC(N)=O)NC(=O)[C@H](CC(C)C)NC(=O)[C@H](C(C)C)NC(=O)[C@H](CCC(N)=O)NC2=O)NC(=O)[C@H](C(C)C)NC(=O)[C@H]([C@@H](C)O)NC(=O)[C@@H]2CCCN2C(=O)CNC(=O)[C@H](CO)NC(=O)[C@H](Cc2ccc(O)cc2)NC(=O)CNC1=O [CBM variant 9] (H-TQS(αMan)AYGQCGGIGYSGPTVCASGTTCQVLNPYYSQCL-OH; disulfide 8-25, 19-35)",Change in Half-Life to Thermolysin Degradation,25.8 min
same,half-life,39 ± 3 min
"CC[C@H](C)[C@@H]1NC(=O)CNC(=O)CNC(=O)[C@@H](NC(=O)[C@H](CCC(N)=O)NC(=O)CNC(=O)[C@H](C)NC(=O)[C@H](Cc2c[nH]cn2)NC(=O)[C@H](CO)NC(=O)[C@H](CCC(N)=O)NC(=O)[C@@H](N)[C@@H](C)O)CSSC[C@@H]2NC(=O)[C@H]([C@@H](C)O)NC(=O)[C@H]([C@@H](C)O)NC(=O)CNC(=O)[C@H](CO)NC(=O)[C@H](C)NC(=O)[C@H](CSSC[C@@H](C(=O)N[C@@H](CC(C)C)C(=O)O)NC(=O)[C@H](CCC(N)=O)NC(=O)[C@H](CO)NC(=O)[C@H](Cc3ccc(O)cc3)NC(=O)[C@H](Cc3ccc(O)cc3)NC(=O)[C@@H]3CCCN3C(=O)[C@H](CC(N)=O)NC(=O)[C@H](CC(C)C)NC(=O)[C@H](C(C)C)NC(=O)[C@H](CCC(N)=O)NC2=O)NC(=O)[C@H](C(C)C)NC(=O)[C@H]([C@@H](C)O)NC(=O)[C@@H]2CCCN2C(=O)CNC(=O)[C@H](CO)NC(=O)[C@H](Cc2ccc(O)cc2)NC(=O)CNC1=O [CBM variant 10] (H-TQSHAGQCGGIGYSGPTVCASGTTCQVLNPYYSQCL-OH; disulfide 8-25, 19-35)",half-life,4.8 ± 1.2 min
"CC[C@H](C)[C@@H]1NC(=O)CNC(=O)CNC(=O)[C@@H](NC(=O)[C@H](CCC(N)=O)NC(=O)CNC(=O)[C@H](C)NC(=O)[C@H](Cc2c[nH]cn2)NC(=O)[C@H](CO[C@H]2O[C@H](CO)[C@@H](O)[C@H](O)[C@@H]2O)NC(=O)[C@H](CCC(N)=O)NC(=O)[C@@H](N)[C@@H](C)O)CSSC[C@@H]2NC(=O)[C@H]([C@@H](C)O)NC(=O)[C@H]([C@@H](C)O)NC(=O)CNC(=O)[C@H](CO)NC(=O)[C@H](C)NC(=O)[C@H](CSSC[C@@H](C(=O)N[C@@H](CC(C)C)C(=O)O)NC(=O)[C@H](CCC(N)=O)NC(=O)[C@H](CO)NC(=O)[C@H](Cc3ccc(O)cc3)NC(=O)[C@H](Cc3ccc(O)cc3)NC(=O)[C@@H]3CCCN3C(=O)[C@H](CC(N)=O)NC(=O)[C@H](CC(C)C)NC(=O)[C@H](C(C)C)NC(=O)[C@H](CCC(N)=O)NC2=O)NC(=O)[C@H](C(C)C)NC(=O)[C@H]([C@@H](C)O)NC(=O)[C@@H]2CCCN2C(=O)CNC(=O)[C@H](CO)NC(=O)[C@H](Cc2ccc(O)cc2)NC(=O)CNC1=O [CBM variant 11] (H-TQS(αMan)HAGQCGGIGYSGPTVCASGTTCQVLNPYYSQCL-OH; disulfide 8-25, 19-35)",Change in Half-Life to Thermolysin Degradation,6 min
same,half-life,10.8 ± 1.8 min
"CC[C@H](C)[C@@H]1NC(=O)CNC(=O)CNC(=O)[C@@H](NC(=O)[C@H](CCC(N)=O)NC(=O)CNC(=O)[C@H](Cc2ccc(O)cc2)NC(=O)[C@H](Cc2c[nH]cn2)NC(=O)[C@@H](NC(=O)[C@H](CCC(N)=O)NC(=O)[C@@H](N)[C@@H](C)O)[C@@H](C)O)CSSC[C@@H]2NC(=O)[C@H]([C@@H](C)O)NC(=O)[C@H]([C@@H](C)O)NC(=O)CNC(=O)[C@H](CO)NC(=O)[C@H](C)NC(=O)[C@H](CSSC[C@@H](C(=O)N[C@@H](CC(C)C)C(=O)O)NC(=O)[C@H](CCC(N)=O)NC(=O)[C@H](CO)NC(=O)[C@H](Cc3ccc(O)cc3)NC(=O)[C@H](Cc3ccc(O)cc3)NC(=O)[C@@H]3CCCN3C(=O)[C@H](CC(N)=O)NC(=O)[C@H](CC(C)C)NC(=O)[C@H](C(C)C)NC(=O)[C@H](CCC(N)=O)NC2=O)NC(=O)[C@H](C(C)C)NC(=O)[C@H]([C@@H](C)O)NC(=O)[C@@H]2CCCN2C(=O)CNC(=O)[C@H](CO)NC(=O)[C@H](Cc2ccc(O)cc2)NC(=O)CNC1=O [CBM variant 12] (H-TQTHYGQCGGIGYSGPTVCASGTTCQVLNPYYSQCL-OH; disulfide 8-25, 19-35)",half-life,21.6 ± 1.2 min
"CC[C@H](C)[C@@H]1NC(=O)CNC(=O)CNC(=O)[C@@H](NC(=O)[C@H](CCC(N)=O)NC(=O)CNC(=O)[C@H](Cc2ccc(O)cc2)NC(=O)[C@H](Cc2c[nH]cn2)NC(=O)[C@@H](NC(=O)[C@H](CCC(N)=O)NC(=O)[C@@H](N)[C@@H](C)O)[C@@H](C)O[C@H]2O[C@H](CO)[C@@H](O)[C@H](O)[C@@H]2O)CSSC[C@@H]2NC(=O)[C@H]([C@@H](C)O)NC(=O)[C@H]([C@@H](C)O)NC(=O)CNC(=O)[C@H](CO)NC(=O)[C@H](C)NC(=O)[C@H](CSSC[C@@H](C(=O)N[C@@H](CC(C)C)C(=O)O)NC(=O)[C@H](CCC(N)=O)NC(=O)[C@H](CO)NC(=O)[C@H](Cc3ccc(O)cc3)NC(=O)[C@H](Cc3ccc(O)cc3)NC(=O)[C@@H]3CCCN3C(=O)[C@H](CC(N)=O)NC(=O)[C@H](CC(C)C)NC(=O)[C@H](C(C)C)NC(=O)[C@H](CCC(N)=O)NC2=O)NC(=O)[C@H](C(C)C)NC(=O)[C@H]([C@@H](C)O)NC(=O)[C@@H]2CCCN2C(=O)CNC(=O)[C@H](CO)NC(=O)[C@H](Cc2ccc(O)cc2)NC(=O)CNC1=O [CBM variant 13] (H-TQT(αMan)HYGQCGGIGYSGPTVCASGTTCQVLNPYYSQCL-OH; disulfide 8-25, 19-35)",Change in Half-Life to Thermolysin Degradation,46.8 min
same,half-life,68.4 ± 10.8 min
"CC[C@H](C)[C@@H]1NC(=O)CNC(=O)CNC(=O)[C@@H](NC(=O)[C@H](CCC(N)=O)NC(=O)CNC(=O)[C@H](Cc2ccc(O)cc2)NC(=O)[C@H](Cc2c[nH]cn2)NC(=O)[C@H](CS)NC(=O)[C@H](CCC(N)=O)NC(=O)[C@@H](N)[C@@H](C)O)CSSC[C@@H]2NC(=O)[C@H]([C@@H](C)O)NC(=O)[C@H]([C@@H](C)O)NC(=O)CNC(=O)[C@H](CO)NC(=O)[C@H](C)NC(=O)[C@H](CSSC[C@@H](C(=O)N[C@@H](CC(C)C)C(=O)O)NC(=O)[C@H](CCC(N)=O)NC(=O)[C@H](CO)NC(=O)[C@H](Cc3ccc(O)cc3)NC(=O)[C@H](Cc3ccc(O)cc3)NC(=O)[C@@H]3CCCN3C(=O)[C@H](CC(N)=O)NC(=O)[C@H](CC(C)C)NC(=O)[C@H](C(C)C)NC(=O)[C@H](CCC(N)=O)NC2=O)NC(=O)[C@H](C(C)C)NC(=O)[C@H]([C@@H](C)O)NC(=O)[C@@H]2CCCN2C(=O)CNC(=O)[C@H](CO)NC(=O)[C@H](Cc2ccc(O)cc2)NC(=O)CNC1=O [CBM variant 14] (H-TQCHYGQCGGIGYSGPTVCASGTTCQVLNPYYSQCL-OH; disulfide 8-25, 19-35)",half-life,10.8 ± 2.4 min
